Legend:
Test in all cases: greenhouse post-emergence herbicidal test
ECHCG = assay type: in vivo, Echinochloa crus-galli; conditions: application rate 0.177 kg/ha, scale 0 to 100
Text: (§1) The culture containers used were plastic flowerpots containing loamy sand with approximately 3.0% of humus as the substrate. The seeds of the test plants were sown separately for each species.
(§2) For the post-emergence treatment, the test plants were first grown to a height of 3 to 15 cm, depending on the plant habit, and only then treated with the active ingredients which had been suspended or emulsified in water. For this purpose, the test plants were either sown directly and grown in the same containers, or they were first grown separately as seedlings and transplanted into the test containers a few days prior to treatment.
(§3) Depending on the species, the plants were kept at 10-25° C. or 20-35° C. The test period extended over 2 to 4 weeks. During this time, the plants were tended, and their response to the individual treatments was evaluated.
(§4) Evaluation was carried out using a scale from 0 to 100. 100 means no emergence of the plants, or complete destruction of at least the aerial moieties, and 0 means no damage, or normal course of growth. A good herbicidal activity is given at values of at least 70 and a very good herbicidal activity is given at values of at least 85.
(§5) The plants used in the greenhouse experiments belonged to the following species: […]

GALAP = assay type: in vivo, Galium aparine; conditions: application rate 0.25 kg/ha, scale 0 to 100
Text: as §1, §2, §3, §4, §5

SETVI = assay type: in vivo, Setaria viridis; conditions: application rate 0.25 kg/ha, scale 0 to 100
Text: as §1, §2, §3, §4, §5

Structure (SMILES) | herbicidal activity against ECHCG (ECHCG) | herbicidal activity against GALAP (GALAP) | herbicidal activity against SETVI (SETVI)
O=c1oc2cccnc2c(O)c1-c1cccc(N2CCOCC2)c1C(F)(F)F [Compound I-26] | very good herbicidal activity (a very good herbicidal activity is given at values of at least 85) | – | –
O=c1oc2cccnc2c(O)c1-c1cc(Cl)cc(N2CCOCC2)c1C(F)(F)F [Compound I-49, 3-[5-chloro-3-morpholino-2-(trifluoromethyl)phenyl]-4-hydroxy-pyrano[3,2-b]pyridin-2-one] | – | very good herbicidal activity (a very good herbicidal activity is given at values of at least 85) | very good herbicidal activity (a very good herbicidal activity is given at values of at least 85)

From patent publication US8809535B2, “Substituted pyridines having herbicidal action” (BASF SE, priority 2010, dated 2014)
